According to US8969586B2 (Bristol-Myers Squibb Company, priority 2011, dated 2015):

The molecules below were run against Human CYP17 (Homo sapiens (Human), UniProt P05093) (assay: CYP17 Total SPA Assay). Details: microsomes from HEK2 cells stably transfected with CYP17; 3H-Pregnenolone 1 uM, NADPH 2 mM; 45 minutes at room temperature.
Sequence of Human CYP17 (P05093 whole entry): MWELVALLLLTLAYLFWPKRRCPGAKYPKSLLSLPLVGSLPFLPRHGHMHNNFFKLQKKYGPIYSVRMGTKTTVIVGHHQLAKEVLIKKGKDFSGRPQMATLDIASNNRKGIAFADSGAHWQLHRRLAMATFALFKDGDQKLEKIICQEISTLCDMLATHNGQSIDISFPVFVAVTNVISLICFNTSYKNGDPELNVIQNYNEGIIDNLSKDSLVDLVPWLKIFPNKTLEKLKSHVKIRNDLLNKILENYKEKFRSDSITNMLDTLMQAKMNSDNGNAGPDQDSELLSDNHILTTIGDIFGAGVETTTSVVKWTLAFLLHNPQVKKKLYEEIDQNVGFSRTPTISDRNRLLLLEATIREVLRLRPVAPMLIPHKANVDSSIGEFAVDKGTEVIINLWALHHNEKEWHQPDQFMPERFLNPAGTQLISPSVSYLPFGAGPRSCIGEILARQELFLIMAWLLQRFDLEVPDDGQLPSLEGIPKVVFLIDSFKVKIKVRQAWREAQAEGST
Assay type: biochemical
Description: The assays were performed in U-bottom 384-well optiplates. The final assay volume was 15 μl prepared from 7.5 μl additions of microsomes (prepared as a high-speed pellet from homogenized HEK2 cells stably transfected with CYP17), substrates (3H-Pregnenolone and NADPH) and test compounds in assay buffer (50 mM Potassium phosphate pH 7.2, 10% glycerol). The reaction was initiated by the combination of the microsomes and substrates in wells containing compound. The reaction was incubated at room temperature for 45 minutes and terminated by adding 7.5 μl of 0.2N HCl to each well. Following an incubation period of 10 minutes, anti-DHEA-coated SPA beads were added to the terminated reaction. The plate was sealed and incubated overnight with shaking at 4° C. The beads were allowed to settle in the plate for 1 hour and the plate read on a TOPCOUNT® (Perkin-Elmer) plate reader.
Inhibition data were calculated by comparison to no enzyme control reactions for 100% inhibition and vehicle-only reactions for 0% inhibition. The final concentration of reagents in the assays are NADPH, 2 mM; 3H-Pregnenolone, 1 uM; microsomes, 1.25 ug/ml; Anti-DHEA-SPA beads (0.125 mg/well) in 0.5% Triton X-100 and DMSO, 0.05%. Dose response curves were generated to determine the concentration required inhibiting 50% of enzyme activity (IC50). Compounds were dissolved at 10 mM in dimethylsulfoxide (DMSO) and evaluated at eleven concentrations, each in duplicate. IC50 values were derived by non-linear regression analysis.
Table 5 below lists the IC50 values for the following examples of this invention measured in the Total CYP17 SPA Assay hereinabove.
For `Cc1ccncc1-c1ccnc2c(-c3ccc(F)cc3)noc12` [Example 86, 3-(4-Fluorophenyl)-7-(4-methylpyridin-3-yl)isoxazolo[4,5-b]pyridine], the IC50 was 3.9 nM. `COc1ccc(COc2noc3c(-c4cnccc4C)cccc23)cc1` [Example 129, 3-(4-methoxybenzyloxy)-7-(4-methylpyridin-3-yl)benzo[d] isoxazole] showed an IC50 of 79 nM. Work on `Cc1ncncc1-c1cccc2c(-c3ccccc3)noc12` [Example 4, 7-(4-Methylpyrimidin-5-yl)-3-phenylbenzo[d]isoxazole] yielded an IC50 of 357 nM. `Clc1ccncc1-c1cccc2c(C3CC3)noc12` [Example 30, 7-(4-Chloropyridin-3-yl)-3-cyclopropylbenzo[d]isoxazole] gave an IC50 of 48 nM. In the case of `Fc1ccc(-c2noc3c(-c4cncn5cccc45)cccc23)cc1` [Example 14, 3-(4-Fluorophenyl)-7-(pyrrolo[1,2-c]pyrimidin-4-yl)benzo[d]isoxazole], the IC50 is reported as 192 nM. `Clc1ccccc1-c1noc2c(-c3cncnc3-n3nccn3)cccc12` [Example 57, 7-(4-(2H-1,2,3-Triazol-2-yl)pyrimidin-5-yl)-3-(2-chlorophenyl)benzo[d]isoxazole] gave an IC50 of 524 nM. For `Cc1ccncc1-c1cccc2c(-c3ccccc3)noc12` [Example 1, 7-(4-Methylpyridin-3-yl)-3-phenylbenzo[d]isoxazole], the IC50 was 1.1 nM. In the case of `Cc1ccncc1-c1cccc2c(OCCN(C)C)noc12` [Example 68], the IC50 is reported as 524 nM. For `Fc1ccc(-c2csc3c(-c4cncnc4C4CC4)ccnc23)cc1` [Example 99, 7-(4-Cyclopropylpyrimidin-5-yl)-3-(4-fluorophenyl)thieno[3,2-b]pyridine], the IC50 was 4 nM. Molecule `Cc1ccncc1-c1cccc2c(-c3ccc(F)cc3)noc12` [Example 6, 3-(4-Fluorophenyl)-7-(4-methylpyridin-3-yl)benzo[d]isoxazole] has an IC50 of 3.2 nM. `Cc1ccncc1-c1ccnc2c(-c3nccs3)csc12` [Example 94, 7-(4-Methylpyridin-3-yl)-3-(thiazol-2-yl)thieno[3,2-b]pyridine] was tested, and the IC50 was 76 nM. In the case of `Nc1ncncc1-c1ccnc2c(-c3ccc(F)cc3Cl)csc12` [Example 103, 5-(3-(2-Chloro-4-fluorophenyl)thieno[3,2-b]pyridin-7-yl)pyrimidin-4-amine], the IC50 is reported as 4 nM. Work on `Fc1ccc(-c2csc3c(-c4cncc5ccccc45)cccc23)cc1` [Example 109, 4-(3-(4-Fluorophenyl)benzo[b]thiophen-7-yl)isoquinoline] yielded an IC50 of 56 nM. `Cc1ncncc1-c1ccnc2c(-c3ccc(F)cc3)csc12` [Example 98, 3-(4-Fluorophenyl)-7-(4-methylpyrimidin-5-yl)thieno[3,2-b]pyridine] was tested, and the IC50 was 8 nM. `FC(F)(F)COc1ncncc1-c1cccc2c(-c3cnccn3)noc12` [Example 26, 3-(Pyrazin-2-yl)-7-(4-(2,2,2-trifluoroethoxy)pyrimidin-5-yl)benzo[d]isoxazole] showed an IC50 of 65 nM. For `Clc1ccccc1-c1noc2c(-c3cncnc3-n3cncn3)cccc12` [Example 52, 7-(4-(1H-1,2,4-Triazol-1-yl)pyrimidin-5-yl)-3-(2-chlorophenyl)benzo[d]isoxazole], the IC50 was 42 nM. `Cc1ccncc1-c1cccc2c(OCc3ccc4ccccc4c3)noc12` [Example 124, 7-(4-methylpyridin-3-yl)-3-(naphthalen-2-ylmethoxy)benzo [d]isoxazole] showed an IC50 of 611 nM. `Cc1ccncc1-c1cccc2c(OCc3ccc(Cl)cc3)noc12` [Example 128, 3-(4-chlorobenzyloxy)-7-(4-methylpyridin-3-yl)benzo[d] isoxazole] was tested, and the IC50 was 251 nM.
